The supplement of paper PMC10307832

Key:
Assay in all cases: relative viability (nuclei count vs DMSO), 5 days (fraction); higher = more cells survive
[1] = compound: COc1cc2nc(N3CCCN(C)CC3)nc(NC3CCN(Cc4ccccc4)CC3)c2cc1OC + CS(=O)(=O)CCNCc1ccc(-c2ccc3ncnc(Nc4ccc(OCc5cccc(F)c5)c(Cl)c4)c3c2)o1 [Lapatinib] (partner 2 µM)
Procedure, shortened: (§1)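 One day after seeding in 1536-well plates, lung cancer cell lines were dosed by pin tool. Dosing was either single-drug or a fixed anchor-drug dose plus five library-drug doses (not always all listed) in √10 steps. After 5 days, nuclei were stained in one fix-and-stain step and counted on 4× images, and relative viability is the nuclei count of treated wells over that of vehicle wells, given as the median of duplicate plates.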

[2] = compound: Cc1cc([C@@H](C)Nc2ccccc2C(=O)O)c2nc(N3CCOCC3)cc(=O)n2c1 [AZD6482] + O=C(c1cc(Cc2n[nH]c(=O)c3ccccc23)ccc1F)N1CCN(C(=O)C2CC2)CC1 [Olaparib] (partner 8 µM)
Procedure, shortened: as §1

[3] = compound: Cc1cc([C@@H](C)Nc2ccccc2C(=O)O)c2nc(N3CCOCC3)cc(=O)n2c1 [AZD6482] + C[C@@H](Oc1cc(-c2cnn(C3CCNCC3)c2)cnc1N)c1c(Cl)ccc(F)c1Cl [Crizotinib] (partner 1 µM)
Procedure, shortened: as §1

[4] = compound: Cc1cc([C@@H](C)Nc2ccccc2C(=O)O)c2nc(N3CCOCC3)cc(=O)n2c1 [AZD6482] + Nc1ncn([C@H]2C[C@H](O)[C@@H](CO)O2)c(=O)n1 [Decitabine] (partner 2 µM)
Procedure, shortened: as §1

Cell Line | relative viability ([1]; first compound 0.2 µM) | relative viability ([1]; first compound 0.6325 µM) | relative viability ([1]; first compound 2 µM) | relative viability ([1]; first compound 6.325 µM) | relative viability ([2]; first compound 0.08 µM) | relative viability ([2]; first compound 0.253 µM) | relative viability ([2]; first compound 0.8 µM) | relative viability ([2]; first compound 2.53 µM) | relative viability ([2]; first compound 8 µM) | relative viability ([3]; first compound 0.08 µM) | relative viability ([3]; first compound 0.253 µM) | relative viability ([3]; first compound 0.8 µM) | relative viability ([3]; first compound 2.53 µM) | relative viability ([3]; first compound 8 µM) | relative viability ([4]; first compound 0.08 µM) | relative viability ([4]; first compound 0.253 µM) | relative viability ([4]; first compound 0.8 µM) | relative viability ([4]; first compound 2.53 µM) | relative viability ([4]; first compound 8 µM)
BEN | 0.721 | 0.953 | 0.94 | 0.721 | 0.915 | 0.934 | 0.946 | 0.875 | 0.816 | 0.876 | 0.769 | 0.913 | 0.655 | 0.827 | 0.621 | 0.533 | 0.767 | 0.509 | 0.581
COR-L23 | 0.848 | 0.849 | 1.1 | 0.92 | 0.272 | 0.414 | 0.364 | 0.195 | 0.34 | 0.467 | 0.733 | 0.749 | 0.489 | 0.478 | 0.418 | 0.386 | 0.456 | 0.396 | 0.366
COR-L 105 | 0.395 | 0.424 | 0.322 | 0.278 | 0.607 | 0.851 | 0.726 | 0.549 | 0.687 | 0.8 | 0.742 | 0.742 | 0.581 | 0.828 | 0.67 | 0.68 | 0.628 | 0.601 | 0.559
EKVX | 0.194 | 0.218 | 0.232 | 0.223 | 0.671 | 0.773 | 0.855 | 0.469 | 0.595 | 0.855 | 0.939 | 0.788 | 0.537 | 0.584 | 0.334 | 0.278 | 0.312 | 0.266 | 0.244
EMC-BAC-2 | 0.908 | 0.881 | 0.914 | 0.891 | 0.455 | 0.479 | 0.523 | 0.471 | 0.44 | 0.66 | 0.717 | 0.858 | 0.617 | 0.653 | 0.938 | 0.956 | 0.994 | 0.778 | 0.908
EPLC-272H | 0.947 | 1.1 | 1.03 | 0.938 | 0.567 | 0.681 | 0.687 | 0.463 | 0.294 | 0.796 |  | 0.835 | 0.649 | 0.584 | 0.313 | 0.325 | 0.321 | 0.216 | 0.341
H3255 | 0.235 | 0.273 | 0.258 | 0.165 | 0.559 | 0.567 | 0.596 | 0.492 | 0.55 | 0.869 | 0.819 | 0.841 | 0.534 | 0.714 | 0.474 | 0.531 | 0.539 | 0.388 | 0.472
HARA | 0.793 | 0.86 | 0.823 | 0.804 | 0.685 | 1.01 | 0.943 | 0.683 | 0.519 | 0.857 | 1.04 | 0.839 |  | 0.899 | 0.495 | 0.511 | 0.455 | 0.43 | 0.602
HCC-15 | 0.888 | 0.789 | 0.824 | 0.765 | 0.692 | 0.662 | 0.737 | 0.697 | 0.768 | 0.755 | 0.729 | 0.763 | 0.699 | 0.869 | 0.648 | 0.614 | 0.571 | 0.488 | 0.556
HCC-44 | 1.01 | 0.989 | 1.05 | 1.04 | 1 | 1.11 | 1.1 | 1.15 | 1.08 | 0.671 | 0.884 | 0.965 | 0.901 | 0.523 | 0.895 | 0.937 | 0.978 | 1 | 0.859
HCC-78 | 0.704 | 1.06 | 1.03 | 0.882 | 0.663 | 0.641 | 0.533 | 0.383 | 0.416 | 0.295 | 0.322 | 0.245 | 0.227 | 0.235 | 0.555 | 0.462 | 0.646 | 0.474 | 0.442
HCC-366 | 1.02 | 1.03 | 1.12 | 0.956 | 0.328 | 0.342 | 0.433 | 0.259 | 0.282 | 0.304 | 0.447 | 0.395 | 0.453 | 0.472 | 0.309 | 0.302 | 0.313 | 0.304 | 0.345
HCC-827 | 0.181 | 0.196 | 0.198 | 0.193 | 0.653 | 0.594 | 0.515 | 0.432 | 0.996 | 0.894 | 0.958 | 0.936 | 0.885 | 0.63 | 0.341 | 0.301 | 0.342 | 0.267 | 0.264
HOP-62 | 1.04 | 1.05 | 1.07 | 1 | 0.444 | 0.539 | 0.453 | 0.459 | 0.552 | 1.07 | 0.897 | 0.609 | 0.782 | 0.751 | 0.197 | 0.239 | 0.229 | 0.265 | 0.209
LC-2-ad | 0.853 | 0.992 | 1.01 | 0.898 | 0.727 | 0.735 | 0.795 | 0.64 | 0.803 | 0.434 |  | 0.476 | 0.404 | 0.367 | 0.799 | 0.71 | 0.811 | 0.661 | 0.635
LCLC-97TM1 | 0.875 |  | 1.17 | 0.836 | 0.403 | 0.285 | 0.413 |  | 0.244 | 0.479 | 0.327 | 0.298 | 0.294 | 0.234 | 0.218 | 0.204 | 0.196 |  | 0.213
LK-2 | 0.983 | 0.996 | 1.14 | 0.909 | 0.916 | 0.731 | 0.581 | 0.73 | 0.432 | 0.24 |  | 0.263 | 0.244 | 0.239 | 0.34 | 0.315 | 0.288 | 0.241 | 0.301
